Reference: article PMC9326880 (Journal of Food and Drug Analysis, 2017)
Like-named read-outs stand apart in the source and are kept apart here.

Tests used:
P-gp [1] = molecular target: T1, P-gp (Homo sapiens, UniProt P08183)
P-gp [2] = molecular target: T1, P-gp; remark: listed apart in the source

T1 sequence (P08183 whole entry): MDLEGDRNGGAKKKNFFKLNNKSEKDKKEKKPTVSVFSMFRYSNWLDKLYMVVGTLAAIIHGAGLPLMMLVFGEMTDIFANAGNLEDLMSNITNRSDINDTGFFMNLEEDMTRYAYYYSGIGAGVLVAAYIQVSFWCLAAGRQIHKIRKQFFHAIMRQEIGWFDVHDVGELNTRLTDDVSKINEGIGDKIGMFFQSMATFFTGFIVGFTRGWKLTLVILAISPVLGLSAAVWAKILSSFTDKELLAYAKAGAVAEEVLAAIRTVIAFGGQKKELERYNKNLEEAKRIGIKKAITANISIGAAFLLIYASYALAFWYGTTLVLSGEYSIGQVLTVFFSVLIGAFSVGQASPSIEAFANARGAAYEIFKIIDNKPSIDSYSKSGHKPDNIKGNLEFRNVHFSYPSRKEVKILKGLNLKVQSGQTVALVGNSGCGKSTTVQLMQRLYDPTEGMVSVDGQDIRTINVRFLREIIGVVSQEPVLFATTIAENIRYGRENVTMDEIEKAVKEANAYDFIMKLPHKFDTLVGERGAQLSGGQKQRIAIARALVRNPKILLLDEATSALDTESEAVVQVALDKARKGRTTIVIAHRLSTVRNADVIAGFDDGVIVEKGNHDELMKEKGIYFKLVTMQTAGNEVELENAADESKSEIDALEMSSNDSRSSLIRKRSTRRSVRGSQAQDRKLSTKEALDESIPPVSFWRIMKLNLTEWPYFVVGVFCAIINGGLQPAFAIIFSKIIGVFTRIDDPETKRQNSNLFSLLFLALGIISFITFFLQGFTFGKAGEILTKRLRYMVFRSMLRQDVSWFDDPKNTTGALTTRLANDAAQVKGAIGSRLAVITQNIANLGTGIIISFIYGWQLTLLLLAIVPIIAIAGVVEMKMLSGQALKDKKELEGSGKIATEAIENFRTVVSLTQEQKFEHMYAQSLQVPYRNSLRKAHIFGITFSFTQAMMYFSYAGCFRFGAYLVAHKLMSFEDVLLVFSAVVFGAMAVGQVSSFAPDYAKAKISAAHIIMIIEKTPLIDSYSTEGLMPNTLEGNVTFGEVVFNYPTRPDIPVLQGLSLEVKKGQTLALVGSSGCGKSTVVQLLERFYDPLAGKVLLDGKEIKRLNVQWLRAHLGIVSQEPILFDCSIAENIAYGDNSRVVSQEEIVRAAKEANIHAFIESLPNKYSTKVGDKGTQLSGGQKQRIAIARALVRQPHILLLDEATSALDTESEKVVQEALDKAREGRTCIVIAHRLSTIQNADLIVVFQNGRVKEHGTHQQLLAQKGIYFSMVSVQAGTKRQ

Structure (SMILES)	Influence on viability of LS 180 cells (MTT) (LS 180 cells)	Decrease of intracellular accumulation of rhodamine 123 (P-gp [1])	Decrease of intracellular accumulation of rhodamine 123 (P-gp [2]) [%]	Enhancement of intracellular accumulation of rhodamine 123 (P-gp [1]) [%]
COc1ccc2cc3[n+](cc2c1OC)CCc1cc2c(cc1-3)OCO2 [berberine, Berberine]	no toxic influences	24–39%	–	–
c1c2c(cc3c1OCO3)-c1cc3ccc4c(c3c[n+]1CC2)OCO4 [coptisine, Coptisine]	no toxic influences	24–39%	–	–
COc1cc2c(cc1OC)-c1cc3ccc(OC)c(OC)c3c[n+]1CC2 [palmatine, Palmatine]	no toxic influences	16–18%	–	–
CO[C@H]1/C=C/O[C@@]2(C)Oc3c(C)c(O)c4c(O)c(c(/C=N/N5CCN(C)CC5)c(O)c4c3C2=O)NC(=O)/C(C)=C\C=C\[C@H](C)[C@H](O)[C@@H](C)[C@@H](O)[C@@H](C)[C@H](OC(C)=O)[C@@H]1C [rifampin, Rifampin]	no toxic influences	–	22.7	–
COc1ccc(CCN(C)CCCC(C#N)(c2ccc(OC)c(OC)c2)C(C)C)cc1OC (stereo not shown) [verapamil]	no toxic influences	–	–	32.5
